# Experimental data published in patent US11992489B2, “Substituted tetrahydroquinoline compounds as indoleamine 2,3-dioxygenase inhibitors” (Merck Sharp & Dohme LLC, priority 2018, dated 2024).
# Target: IDO1 (Homo sapiens, UniProt P14902)
# Assay: IDO1 cellular assay in HeLa cells stimulated with IFNγ
# Assay type: cell-based
# Conditions: IFNγ 100 ng/mL, 300 uM L-tryptophan, about 48 hours, fluorescence readout, read-out: HeLa Cell Potency, IC50
# Procedure: Biological Assays IDO1 Cellular Assay in HeLa Cells Stimulated with IFNγ
# HeLa cells were cultured in complete HeLa culture medium (90% EMEM, 10% heat-inactivated fetal bovine serum) and expanded to about 1×10^9 cells. The cells were then collected and frozen down at 1×10^7 cells/vial in 1 mL frozen medium (90% complete HeLa culture medium, 10% DMSO).
# Compounds to be tested were serially diluted in ten 3-fold steps in DMSO starting from 10 mM DMSO stocks in Echo low volume plate(s). Compound dilutions or DMSO alone were then dispensed from the dilution plate(s) into Greiner black 384-well assay plate(s) (catalog #781086, 50 nL/well) using an Echo 550 acoustic liquid handler (Labcyte).
# Frozen HeLa cells were thawed and transferred into HeLa assay medium (99% complete HeLa culture medium, 1% Pen/Strep) with 20 mL medium/vial of cells. The cells were spun down at 250 g in a table top centrifuge for 5 min and suspended in same volume of HeLa assay medium. The cells were then counted and adjusted to a density of 2×10^5 cells/mL in HeLa assay medium. Sterile L-tryptophan were added to the cells with final concentration of 300 uM L-tryptophan. A small aliquot (2 mL/plate) of HeLa cells were set aside and were not treated with IFNγ, to serve as the Max-E control.
# HeLa cells with and without IFNγ were dispensed to the respective wells of 384-well assay plates containing the compounds. The plates were incubated for about 48 hours at a 37° C., 5% CO2 incubator. Afterwards, 12 μL of 0.5 M methyl isonipecotate in dimethyl sulfoxide were added into each well and the plates were sealed and incubated at 37° C. without CO2 overnight. The plates were centrifuged for 1 min at 200×g. The resulting fluorescence was measured in a Spectramax plate reader (Molecular Devices) with a 400 nm excitation filter and a 510 nm emission filter.
# The fluorescence intensity of each well was corrected for the background observed in wells with non-IFNγ-treated cells and was expressed as a fraction of the intensity observed in wells of IFNγ-treated cells and DMSO only. Potencies were calculated by linear least squares fit to the four parameter logistic IC50 equation.
# Sequence of IDO1 (P14902 whole entry): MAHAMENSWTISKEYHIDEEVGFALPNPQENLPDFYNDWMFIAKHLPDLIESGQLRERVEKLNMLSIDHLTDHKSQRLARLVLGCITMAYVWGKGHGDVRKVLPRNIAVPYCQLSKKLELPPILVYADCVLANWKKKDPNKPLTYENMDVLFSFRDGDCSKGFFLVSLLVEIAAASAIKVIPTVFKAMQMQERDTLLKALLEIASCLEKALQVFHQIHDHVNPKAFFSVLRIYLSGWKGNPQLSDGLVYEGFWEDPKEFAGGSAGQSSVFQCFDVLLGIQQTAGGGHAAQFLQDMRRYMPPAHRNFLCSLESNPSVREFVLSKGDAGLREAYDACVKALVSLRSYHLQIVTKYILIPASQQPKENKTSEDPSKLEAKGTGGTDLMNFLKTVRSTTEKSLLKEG
row,Structure (SMILES),IC50
1,"O=C(NC1(c2ccc3c(n2)CCCC3OCC2CC2)CC1)c1ccc(F)cc1 (single isomer, unassigned) [Example 19, N-(1-(5-(cyclopropylmethoxy)-5,6,7,8-tetrahydroquinolin-2-yl)cyclopropyl)-4-fluorobenzamide]",65.9 nM
2,"O=C(NC1(c2ccc3c(n2)CCCC3OCC2CC2)CC1)c1ccc(F)cc1 (single isomer, unassigned) [Example 20, N-(1-(5-(cyclopropylmethoxy)-5,6,7,8-tetrahydroquinolin-2-yl)cyclopropyl)-4-fluorobenzamide]",95.4 nM
3,"Cc1nccc([C@@H]2CCCc3nc(C4(NC(=O)c5ccc(F)cc5)CC4)ccc32)n1 (single isomer, unassigned) [Example 22]",41.3 nM
4,"Cc1nccc([C@H]2CCCc3nc(C4(NC(=O)c5ccc(F)cc5)CC4)ccc32)n1 (single isomer, unassigned) [Example 23]",42.3 nM
5,"Cc1ccncc1OC1CCCc2nc(C3(NC(=O)c4ccc(F)cc4)CC3)ccc21 (stereo not drawn) [Example 10, 4-fluoro-N-(1-(5-((4-methylpyridin-3-yl)oxy)-5,6,7,8-tetrahydroquinolin-2-yl)cyclopropyl)benzamide]",108 nM
6,"Cc1ncc(OC2CCCc3nc(C4(NC(=O)c5ccc(F)cc5)CC4)ccc32)cn1 (stereo not drawn) [Example 13, 4-fluoro-N-(1-(5-((2-methylpyrimidin-5-yl)oxy)-5,6,7,8-tetrahydroquinolin-2-yl)cyclopropyl)benzamide]",44.5 nM
7,"CN(C)c1ncc(OC2CCCc3nc(C4(NC(=O)c5ccc(F)cc5)CC4)ccc32)cn1 (stereo not drawn) [Example 14, N-(1-(5-((2-(dimethylamino)pyrimidin-5-yl)oxy)-5,6,7,8-tetrahydroquinolin-2-yl)cyclopropyl)-4-fluorobenzamide]",81.4 nM
8,"Cc1ncc(OC2CCCc3nc(C4(NC(=O)c5ccc(F)cc5)CC4)ccc32)cn1 (stereo not drawn) [Example 15, 4-fluoro-N-(1-(5-((2-methylpyrimidin-5-yl)oxy)-5,6,7,8-tetrahydroquinolin-2-yl)cyclopropyl)benzamide]",130 nM
9,"O=C(NC1(c2ccc3c(n2)CCCC3OCC2CC2)CC1)c1ccc(F)cc1 (stereo not drawn) [Example 18, N-(1-(5-(cyclopropylmethoxy)-5,6,7,8-tetrahydroquinolin-2-yl)cyclopropyl)-4-fluorobenzamide]",58.6 nM
10,"O=C(NC1(c2ccc3c(n2)CCCC3c2cncc(F)c2)CC1)c1ccc(F)cc1 (stereo not drawn) [Example 24, 4-Fluoro-N-(1-(5-(5-fluoropyridin-3-yl)-5,6,7,8-tetrahydroquinolin-2-yl)cyclopropyl)benzamide]",384 nM
11,"CCC(NC(=O)c1ccc(F)cc1)c1ccc2c(n1)CCCC2c1cncc(F)c1 (stereo not drawn) [Example 25, 4-fluoro-N-(1-(5-(5-fluoropyridin-3-yl)-5,6,7,8-tetrahydroquinolin-2-yl)propyl)benzamide]",2190 nM
12,"Cc1cncc(C2CCCc3nc(C4(NC(=O)c5ccc(F)cc5)CC4)ccc32)c1 (stereo not drawn) [Example 26, 4-fluoro-N-(1-(5-(5-methylpyridin-3-yl)-5,6,7,8-tetrahydroquinolin-2-yl)cyclopropyl)benzamide]",183 nM
13,"CCC(NC(=O)c1ccc(F)cc1)c1ccc2c(n1)CCCC2c1cncc(C)c1 (stereo not drawn) [Example 27, 4-fluoro-N-(1-(5-(5-methylpyridin-3-yl)-5,6,7,8-tetrahydroquinolin-2-yl)propyl)benzamide]",643 nM
14,"O=C(NC1(c2ccc3c(n2)CCCC3c2cncc(C(F)(F)F)c2)CC1)c1ccc(F)cc1 (stereo not drawn) [Example 28, 4-fluoro-N-(1-(5-(5-(trifluoromethyl)pyridin-3-yl)-5,6,7,8-tetrahydroquinolin-2-yl)cyclopropyl)benzamide]",212 nM
15,"CCC(NC(=O)c1ccc(F)cc1)c1ccc2c(n1)CCCC2c1cncc(C(F)(F)F)c1 (stereo not drawn) [Example 29, 4-fluoro-N-(1-(5-(5-(trifluoromethyl)pyridin-3-yl)-5,6,7,8-tetrahydroquinolin-2-yl)propyl)benzamide]",854 nM
16,"Cc1ncc(C2CCCc3nc(C4(NC(=O)c5ccc(F)cc5)CC4)ccc32)cn1 (stereo not drawn) [Example 30, 4-fluoro-N-(1-(5-(2-methylpyrimidin-5-yl)-5,6,7,8-tetrahydroquinolin-2-yl)cyclopropyl)benzamide]",1420 nM

# These reach a lower IC50. Values come first.
row,IC50,Structure (SMILES)
1,9.34 nM,"CN(C)c1ncc(OC2CCCc3nc(C4(NC(=O)c5ccc(F)cc5)CC4)ccc32)cn1 (single isomer, unassigned) [Example 4, N-(1-(5-((2-(dimethylamino)pyrimidin-5-yl)oxy)-5,6,7,8-tetrahydroquinolin-2-yl)cyclopropyl)-4-fluorobenzamide]"
2,12.4 nM,"O=C(NC1(c2ccc3c(n2)CCCC3Oc2ccc(F)nc2)CC1)c1ccc(F)cc1 (stereo not drawn) [Example 5, 4-fluoro-N-(1-(5((6-fluoropyridin-3-yl)oxy)-5,6,7,8-tetrahydroquinolin-2-yl)cyclopropyl)benzamide]"
3,9.96 nM,"Cc1ccncc1OC1CCCc2nc(C3(NC(=O)c4ccc(F)cc4)CC3)ccc21 (stereo not drawn) [Example 6, 4-fluoro-N-(1-(5((4-methylpyridin-3-yl)oxy)-5,6,7,8-tetrahydroquinolin-2-yl)cyclopropyl)benzamide]"
4,5.32 nM,"O=C(NC1(c2ccc3c(n2)CCCC3Oc2cncc(Cl)c2)CC1)c1ccc(F)cc1 (stereo not drawn) [Example 7, N-(1-(5-((5-chloropyridin-3-yl)oxy)-5,6,7,8-tetrahydroquinolin-2-yl)cyclopropyl)-4-fluorobenzamide]"
5,2.16 nM,"N#Cc1cccc(OC2CCCc3nc(C4(NC(=O)c5ccc(F)cc5)CC4)ccc32)c1 (stereo not drawn) [Example 8, N-(1-(5-(3-cyanophenoxy)-5,6,7,8-tetrahydroquinolin-2-yl)cyclopropyl)-4-fluorobenzamide]"
6,24.4 nM,"O=C(NC1(c2ccc3c(n2)CCCC3Oc2ccc(F)nc2)CC1)c1ccc(F)cc1 (stereo not drawn) [Example 9, 4-fluoro-N-(1-(5((6-fluoropyridin-3-yl)oxy)-5,6,7,8-tetrahydroquinolin-2-yl)cyclopropyL)benzamide]"
7,3.96 nM,"O=C(NC1(c2ccc3c(n2)CCCC3Oc2cncc(Cl)c2)CC1)c1ccc(F)cc1 (stereo not drawn) [Example 11, N-(1-(5-((5-chloropyridin-3-yl)oxy)-5,6,7,8-tetrahydroquinolin-2-yl)cyclopropyl)-4-fluorobenzamide]"
8,5.69 nM,"N#Cc1cccc(OC2CCCc3nc(C4(NC(=O)c5ccc(F)cc5)CC4)ccc32)c1 (stereo not drawn) [Example 12, N-(1-(5-(3-cyanophenoxy)-5,6,7,8-tetrahydroquinolin-2-yl)cyclopropyl)-4-fluorobenzamide]"
9,13.9 nM,"O=C(NC1(c2ccc3c(n2)CCCC3Nc2cccc(Cl)c2)CC1)c1ccc(F)cc1 (stereo not drawn) [Example 16, N-(1-(5-((3-chlorophenyl)amino)-5,6,7,8-tetrahydroquinolin-2-yl)cyclopropyl)-4-fluorobenzamide]"
10,38.2 nM,"O=C(NC1(c2ccc3c(n2)CCCC3Nc2cccc(Cl)c2)CC1)c1ccc(F)cc1 (stereo not drawn) [Example 17, N-(1-(5-((3-chlorophenyl)amino)-5,6,7,8-tetrahydroquinolin-2-yl)cyclopropyl)-4-fluorobenzamide]"
11,25 nM,"Cc1nccc(C2CCCc3nc(C4(NC(=O)c5ccc(F)cc5)CC4)ccc32)n1 (stereo not drawn) [Example 21, 4-Fluoro-N-(1-(5-(2-methylpyrimidin-4-yl)-5,6,7,8-tetrahydroquinolin-2-yl)cyclopropyl)benzamide]"
